Conditions in all cases: Compound concentration 10 µM
The target in experiment [1] is D(3) dopamine receptor (Homo sapiens) (UniProt P35462).
Description: PDSP Primary Binding target: DRD3 - Compounds are tested at 10 uM concentration, plate are incubated at room temperature in the dark for 90 minutes. Reaction are stopped by vacuum filtration onto 0.3% polyethyleneimine soaked filter mats using Filtermate harvester. Scintilation cocktail is then melted onto microwave-dried filters on a hot plate and the radio activity is counted in Microbia counter.
The target of experiment [2] is Beta-2 adrenergic receptor (Homo sapiens) (UniProt P07550).
Description: PDSP Primary Binding target: ADRB2 - Compounds are tested at 10 uM concentration, plate are incubated at room temperature in the dark for 90 minutes. Reaction are stopped by vacuum filtration onto 0.3% polyethyleneimine soaked filter mats using Filtermate harvester. Scintilation cocktail is then melted onto microwave-dried filters on a hot plate and the radio activity is counted in Microbia counter.
Experiment [3] concerns the target T1, D(4) dopamine receptor (Homo sapiens) (UniProt P21917).
T1 sequence (whole entry): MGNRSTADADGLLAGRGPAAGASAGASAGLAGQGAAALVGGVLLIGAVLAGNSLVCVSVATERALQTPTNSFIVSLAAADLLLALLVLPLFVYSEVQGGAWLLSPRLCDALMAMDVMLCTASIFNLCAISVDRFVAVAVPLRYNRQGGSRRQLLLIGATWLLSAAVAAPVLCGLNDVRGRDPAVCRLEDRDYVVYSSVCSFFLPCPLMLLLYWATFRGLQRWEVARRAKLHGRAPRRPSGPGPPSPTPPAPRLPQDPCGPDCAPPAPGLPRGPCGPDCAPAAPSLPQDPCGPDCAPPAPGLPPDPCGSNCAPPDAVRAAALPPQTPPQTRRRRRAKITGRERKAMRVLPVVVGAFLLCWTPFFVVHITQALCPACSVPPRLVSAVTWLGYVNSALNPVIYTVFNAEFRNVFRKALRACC
Description: PDSP Primary Binding target: DRD4 - Compounds are tested at 10 uM concentration, plate are incubated at room temperature in the dark for 90 minutes. Reaction are stopped by vacuum filtration onto 0.3% polyethyleneimine soaked filter mats using Filtermate harvester. Scintilation cocktail is then melted onto microwave-dried filters on a hot plate and the radio activity is counted in Microbia counter.

The target in experiment [4] is 5-hydroxytryptamine receptor 1B (Homo sapiens) (UniProt P28222).
5-hydroxytryptamine receptor 1B (Homo sapiens), sequence (P28222 whole entry): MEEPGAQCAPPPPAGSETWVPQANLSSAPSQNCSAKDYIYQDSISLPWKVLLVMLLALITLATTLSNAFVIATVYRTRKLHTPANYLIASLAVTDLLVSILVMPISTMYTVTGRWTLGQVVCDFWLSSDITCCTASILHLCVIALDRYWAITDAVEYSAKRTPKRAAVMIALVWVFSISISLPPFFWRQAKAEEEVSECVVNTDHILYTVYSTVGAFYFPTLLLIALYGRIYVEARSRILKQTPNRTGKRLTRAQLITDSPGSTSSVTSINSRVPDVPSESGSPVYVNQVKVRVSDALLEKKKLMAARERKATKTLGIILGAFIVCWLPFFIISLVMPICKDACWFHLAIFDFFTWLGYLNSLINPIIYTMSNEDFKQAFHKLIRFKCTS
Description: PDSP Primary Binding target: HTR1B - Compounds are tested at 10 uM concentration, plate are incubated at room temperature in the dark for 90 minutes. Reaction are stopped by vacuum filtration onto 0.3% polyethyleneimine soaked filter mats using Filtermate harvester. Scintilation cocktail is then melted onto microwave-dried filters on a hot plate and the radio activity is counted in Microbia counter.
Experiment [5] addresses Histamine H3 receptor (Homo sapiens) (UniProt Q9Y5N1).
Description: PDSP Primary Binding target: HRH3 - Compounds are tested at 10 uM concentration, plate are incubated at room temperature in the dark for 90 minutes. Reaction are stopped by vacuum filtration onto 0.3% polyethyleneimine soaked filter mats using Filtermate harvester. Scintilation cocktail is then melted onto microwave-dried filters on a hot plate and the radio activity is counted in Microbia counter.
Experiment [6] concerns the target T2, Muscarinic acetylcholine receptor M4 (Homo sapiens) (UniProt P08173).
T2 sequence (whole entry): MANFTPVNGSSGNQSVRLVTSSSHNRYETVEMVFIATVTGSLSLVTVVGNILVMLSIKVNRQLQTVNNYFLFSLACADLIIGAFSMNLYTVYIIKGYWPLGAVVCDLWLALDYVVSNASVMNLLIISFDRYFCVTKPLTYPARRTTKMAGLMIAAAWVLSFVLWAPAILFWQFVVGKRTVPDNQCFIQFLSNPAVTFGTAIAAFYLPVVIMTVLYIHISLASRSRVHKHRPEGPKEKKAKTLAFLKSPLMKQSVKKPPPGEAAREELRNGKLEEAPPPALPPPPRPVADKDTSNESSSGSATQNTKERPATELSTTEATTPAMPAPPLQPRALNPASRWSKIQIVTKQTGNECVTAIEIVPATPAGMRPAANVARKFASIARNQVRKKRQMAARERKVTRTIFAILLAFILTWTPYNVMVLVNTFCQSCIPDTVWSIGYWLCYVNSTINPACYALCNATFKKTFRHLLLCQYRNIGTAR
Description: PDSP Primary Binding target: CHRM4 - Compounds are tested at 10 uM concentration, plate are incubated at room temperature in the dark for 90 minutes. Reaction are stopped by vacuum filtration onto 0.3% polyethyleneimine soaked filter mats using Filtermate harvester. Scintilation cocktail is then melted onto microwave-dried filters on a hot plate and the radio activity is counted in Microbia counter.

Experiment [7] deals with Beta-1 adrenergic receptor (Homo sapiens) (UniProt P08588).
Beta-1 adrenergic receptor (Homo sapiens), sequence (P08588 whole entry, looked up): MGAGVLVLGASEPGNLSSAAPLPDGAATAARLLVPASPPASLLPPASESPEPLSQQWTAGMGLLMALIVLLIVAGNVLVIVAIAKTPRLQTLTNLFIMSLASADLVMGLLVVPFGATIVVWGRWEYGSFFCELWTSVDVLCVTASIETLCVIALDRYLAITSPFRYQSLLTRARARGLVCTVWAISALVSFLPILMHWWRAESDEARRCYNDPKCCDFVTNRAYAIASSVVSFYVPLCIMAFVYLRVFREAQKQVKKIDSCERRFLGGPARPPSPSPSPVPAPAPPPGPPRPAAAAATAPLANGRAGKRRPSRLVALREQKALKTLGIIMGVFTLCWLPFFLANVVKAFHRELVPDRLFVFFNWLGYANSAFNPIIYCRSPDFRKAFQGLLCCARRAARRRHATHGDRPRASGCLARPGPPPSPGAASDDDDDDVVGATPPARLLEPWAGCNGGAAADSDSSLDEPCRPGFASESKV
Description: PDSP Primary Binding target: ADRB1 - Compounds are tested at 10 uM concentration, plate are incubated at room temperature in the dark for 90 minutes. Reaction are stopped by vacuum filtration onto 0.3% polyethyleneimine soaked filter mats using Filtermate harvester. Scintilation cocktail is then melted onto microwave-dried filters on a hot plate and the radio activity is counted in Microbia counter.
For experiment [8], the target named is T3, Alpha-1B adrenergic receptor (Homo sapiens) (UniProt P35368).
T3 sequence (whole entry): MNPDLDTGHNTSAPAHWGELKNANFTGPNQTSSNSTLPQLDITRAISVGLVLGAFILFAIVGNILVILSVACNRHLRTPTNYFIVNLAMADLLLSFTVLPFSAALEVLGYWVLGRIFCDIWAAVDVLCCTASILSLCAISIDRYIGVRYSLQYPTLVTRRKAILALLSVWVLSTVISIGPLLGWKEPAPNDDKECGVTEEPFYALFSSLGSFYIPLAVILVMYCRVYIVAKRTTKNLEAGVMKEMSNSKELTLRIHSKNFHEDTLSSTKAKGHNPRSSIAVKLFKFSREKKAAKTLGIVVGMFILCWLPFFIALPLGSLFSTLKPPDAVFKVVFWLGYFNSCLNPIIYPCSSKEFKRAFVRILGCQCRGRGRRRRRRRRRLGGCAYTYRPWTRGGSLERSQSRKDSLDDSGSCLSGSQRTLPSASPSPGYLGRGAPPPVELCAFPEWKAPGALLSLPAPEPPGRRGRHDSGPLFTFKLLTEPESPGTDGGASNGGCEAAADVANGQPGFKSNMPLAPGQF
Description: PDSP Primary Binding target: ADRA1B - Compounds are tested at 10 uM concentration, plate are incubated at room temperature in the dark for 90 minutes. Reaction are stopped by vacuum filtration onto 0.3% polyethyleneimine soaked filter mats using Filtermate harvester. Scintilation cocktail is then melted onto microwave-dried filters on a hot plate and the radio activity is counted in Microbia counter.

For experiment [9], the target named is T4, Alpha-1D adrenergic receptor (Homo sapiens) (UniProt P25100).
T4 sequence (whole entry): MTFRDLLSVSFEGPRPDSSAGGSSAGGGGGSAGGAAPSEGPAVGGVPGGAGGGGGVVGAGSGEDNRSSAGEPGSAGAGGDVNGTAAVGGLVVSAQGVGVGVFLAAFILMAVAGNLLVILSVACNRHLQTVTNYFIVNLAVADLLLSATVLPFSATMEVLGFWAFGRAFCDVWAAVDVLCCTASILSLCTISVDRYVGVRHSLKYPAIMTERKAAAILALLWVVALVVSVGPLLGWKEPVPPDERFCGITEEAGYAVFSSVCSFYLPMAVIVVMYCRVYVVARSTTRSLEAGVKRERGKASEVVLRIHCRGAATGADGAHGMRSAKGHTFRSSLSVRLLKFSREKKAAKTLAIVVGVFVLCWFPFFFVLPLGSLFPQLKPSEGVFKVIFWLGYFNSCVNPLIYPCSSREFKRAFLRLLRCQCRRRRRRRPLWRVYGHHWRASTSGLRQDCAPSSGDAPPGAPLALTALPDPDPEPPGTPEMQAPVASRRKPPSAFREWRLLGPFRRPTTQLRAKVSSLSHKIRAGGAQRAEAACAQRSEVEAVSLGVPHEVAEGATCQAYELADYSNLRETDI
Description: PDSP Primary Binding target: ADRA1D - Compounds are tested at 10 uM concentration, plate are incubated at room temperature in the dark for 90 minutes. Reaction are stopped by vacuum filtration onto 0.3% polyethyleneimine soaked filter mats using Filtermate harvester. Scintilation cocktail is then melted onto microwave-dried filters on a hot plate and the radio activity is counted in Microbia counter.

Experiment [10] has as its target 5-hydroxytryptamine receptor 2A (Homo sapiens) (UniProt P28223).
Description: PDSP Primary Binding target: HTR2A - Compounds are tested at 10 uM concentration, plate are incubated at room temperature in the dark for 90 minutes. Reaction are stopped by vacuum filtration onto 0.3% polyethyleneimine soaked filter mats using Filtermate harvester. Scintilation cocktail is then melted onto microwave-dried filters on a hot plate and the radio activity is counted in Microbia counter.
For experiment [11], the target named is D(1B) dopamine receptor (Homo sapiens) (UniProt P21918).
D(1B) dopamine receptor (Homo sapiens), sequence (P21918 whole entry): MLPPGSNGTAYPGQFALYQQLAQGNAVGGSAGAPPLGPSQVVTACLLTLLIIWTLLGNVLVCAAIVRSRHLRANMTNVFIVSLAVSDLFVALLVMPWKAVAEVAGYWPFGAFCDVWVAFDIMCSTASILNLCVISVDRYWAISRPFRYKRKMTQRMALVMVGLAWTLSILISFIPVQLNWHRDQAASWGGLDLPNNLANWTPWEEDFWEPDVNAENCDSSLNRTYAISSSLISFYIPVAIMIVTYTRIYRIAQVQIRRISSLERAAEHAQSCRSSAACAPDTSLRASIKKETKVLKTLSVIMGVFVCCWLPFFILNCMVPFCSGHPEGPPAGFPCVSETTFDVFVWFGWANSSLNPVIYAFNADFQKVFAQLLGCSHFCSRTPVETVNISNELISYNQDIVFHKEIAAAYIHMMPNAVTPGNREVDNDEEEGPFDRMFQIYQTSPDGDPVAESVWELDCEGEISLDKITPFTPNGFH
Description: PDSP Primary Binding target: DRD5 - Compounds are tested at 10 uM concentration, plate are incubated at room temperature in the dark for 90 minutes. Reaction are stopped by vacuum filtration onto 0.3% polyethyleneimine soaked filter mats using Filtermate harvester. Scintilation cocktail is then melted onto microwave-dried filters on a hot plate and the radio activity is counted in Microbia counter.
For experiment [12], the target named is Kappa-type opioid receptor (Homo sapiens) (UniProt P41145).
Kappa-type opioid receptor (Homo sapiens), sequence (P41145 whole entry): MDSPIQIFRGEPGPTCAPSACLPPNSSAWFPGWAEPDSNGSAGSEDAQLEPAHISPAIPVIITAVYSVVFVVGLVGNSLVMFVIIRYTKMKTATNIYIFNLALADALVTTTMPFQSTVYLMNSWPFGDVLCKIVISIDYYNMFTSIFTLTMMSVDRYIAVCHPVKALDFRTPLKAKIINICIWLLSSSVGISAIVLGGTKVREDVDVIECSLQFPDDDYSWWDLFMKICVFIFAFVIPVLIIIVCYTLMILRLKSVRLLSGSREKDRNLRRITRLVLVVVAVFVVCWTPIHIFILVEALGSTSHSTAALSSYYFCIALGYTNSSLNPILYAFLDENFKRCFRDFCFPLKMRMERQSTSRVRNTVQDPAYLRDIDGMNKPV
Description: PDSP Primary Binding target: OPRK1 - Compounds are tested at 10 uM concentration, plate are incubated at room temperature in the dark for 90 minutes. Reaction are stopped by vacuum filtration onto 0.3% polyethyleneimine soaked filter mats using Filtermate harvester. Scintilation cocktail is then melted onto microwave-dried filters on a hot plate and the radio activity is counted in Microbia counter.
Experiment [13] has as its target T5, 5-hydroxytryptamine receptor 1A (Homo sapiens) (UniProt P08908).
T5 sequence (whole entry): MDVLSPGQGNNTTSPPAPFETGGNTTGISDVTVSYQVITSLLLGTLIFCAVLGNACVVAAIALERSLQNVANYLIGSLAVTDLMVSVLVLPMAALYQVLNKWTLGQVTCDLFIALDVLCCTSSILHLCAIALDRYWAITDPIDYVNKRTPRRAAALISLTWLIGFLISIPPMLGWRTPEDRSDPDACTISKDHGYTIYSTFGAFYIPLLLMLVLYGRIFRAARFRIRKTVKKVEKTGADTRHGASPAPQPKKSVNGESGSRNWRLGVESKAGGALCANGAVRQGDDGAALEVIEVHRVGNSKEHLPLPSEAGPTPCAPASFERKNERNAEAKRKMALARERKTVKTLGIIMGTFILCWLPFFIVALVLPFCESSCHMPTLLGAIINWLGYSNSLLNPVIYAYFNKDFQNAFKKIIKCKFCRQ
Description: PDSP Primary Binding target: HTR1A - Compounds are tested at 10 uM concentration, plate are incubated at room temperature in the dark for 90 minutes. Reaction are stopped by vacuum filtration onto 0.3% polyethyleneimine soaked filter mats using Filtermate harvester. Scintilation cocktail is then melted onto microwave-dried filters on a hot plate and the radio activity is counted in Microbia counter.

5-hydroxytryptamine receptor 2A (Homo sapiens), sequence (P28223 whole entry): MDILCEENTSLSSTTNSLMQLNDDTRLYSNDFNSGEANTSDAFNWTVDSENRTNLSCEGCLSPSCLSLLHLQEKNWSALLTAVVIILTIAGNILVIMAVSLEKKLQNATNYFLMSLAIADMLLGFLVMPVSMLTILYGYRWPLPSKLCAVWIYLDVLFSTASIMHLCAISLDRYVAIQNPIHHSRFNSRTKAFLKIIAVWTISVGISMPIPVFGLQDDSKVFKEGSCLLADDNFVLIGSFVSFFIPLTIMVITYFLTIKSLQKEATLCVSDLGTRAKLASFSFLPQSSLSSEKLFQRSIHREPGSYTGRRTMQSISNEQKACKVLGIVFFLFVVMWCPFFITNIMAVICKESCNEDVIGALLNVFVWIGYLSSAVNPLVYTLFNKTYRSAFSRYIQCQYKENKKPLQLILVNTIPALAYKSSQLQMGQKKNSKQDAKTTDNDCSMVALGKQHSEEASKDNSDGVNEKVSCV
Beta-2 adrenergic receptor (Homo sapiens), sequence (P07550 whole entry, looked up): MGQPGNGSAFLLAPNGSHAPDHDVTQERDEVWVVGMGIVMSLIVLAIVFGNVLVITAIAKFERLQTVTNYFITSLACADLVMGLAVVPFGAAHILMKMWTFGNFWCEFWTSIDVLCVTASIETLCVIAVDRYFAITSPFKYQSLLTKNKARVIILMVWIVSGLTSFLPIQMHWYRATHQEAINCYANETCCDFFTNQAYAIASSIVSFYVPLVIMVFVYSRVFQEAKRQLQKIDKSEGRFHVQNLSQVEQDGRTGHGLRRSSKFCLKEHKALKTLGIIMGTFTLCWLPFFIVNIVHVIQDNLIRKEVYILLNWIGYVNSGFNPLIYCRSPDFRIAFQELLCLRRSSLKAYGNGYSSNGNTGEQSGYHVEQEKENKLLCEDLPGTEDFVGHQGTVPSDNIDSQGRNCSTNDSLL
D(3) dopamine receptor (Homo sapiens), sequence (P35462 whole entry): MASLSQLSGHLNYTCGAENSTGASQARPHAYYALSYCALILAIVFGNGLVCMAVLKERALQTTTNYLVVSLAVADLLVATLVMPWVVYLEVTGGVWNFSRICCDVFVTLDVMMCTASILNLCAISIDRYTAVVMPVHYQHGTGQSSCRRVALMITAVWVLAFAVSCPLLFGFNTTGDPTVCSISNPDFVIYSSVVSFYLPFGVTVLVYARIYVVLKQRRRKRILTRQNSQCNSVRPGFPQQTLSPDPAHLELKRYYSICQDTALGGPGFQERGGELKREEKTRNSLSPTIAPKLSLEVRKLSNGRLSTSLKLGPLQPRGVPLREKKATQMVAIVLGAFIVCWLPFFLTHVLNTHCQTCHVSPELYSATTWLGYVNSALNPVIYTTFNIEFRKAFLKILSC
Histamine H3 receptor (Homo sapiens), sequence (Q9Y5N1 whole entry): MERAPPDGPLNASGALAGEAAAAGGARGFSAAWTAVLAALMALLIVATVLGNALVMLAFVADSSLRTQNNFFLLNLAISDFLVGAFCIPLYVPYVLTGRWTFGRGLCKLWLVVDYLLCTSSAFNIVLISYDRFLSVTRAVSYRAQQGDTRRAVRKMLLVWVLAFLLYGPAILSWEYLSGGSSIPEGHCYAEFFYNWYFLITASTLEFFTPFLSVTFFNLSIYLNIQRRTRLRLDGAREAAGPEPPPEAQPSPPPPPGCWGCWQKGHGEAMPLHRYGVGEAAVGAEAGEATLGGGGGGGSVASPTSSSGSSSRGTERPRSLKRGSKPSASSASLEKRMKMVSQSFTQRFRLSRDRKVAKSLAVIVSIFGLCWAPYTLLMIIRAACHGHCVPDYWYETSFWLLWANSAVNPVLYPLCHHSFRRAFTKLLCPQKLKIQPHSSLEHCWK

In the case of `NC[C@@H]1O[C@H](C23CC4CC(CC(C4)C2)C3)Cc2c1ccc(O)c2O`, the inhibition was 81% in experiment [1]; 29.6% in [2]; 83.8% in [3]; 22.6% in experiment [4]; 24.8% in experiment [5]; 8.08% in [6]. Also, the inhibition in [7] was -6.91%; in experiment [8], 56.9%; in experiment [9], 3.98%; in [10], 3.87%; in [11], 82.7%; in [12], 12.2%. Also, the inhibition in [13] is 14.3%.

With `N#Cc1ccc2[nH]cc(CCCCN3CCN(c4ccc5oc(C(N)=O)cc5c4)CC3)c2c1`, the inhibition in experiment [1] was 95.2%; in [2] it was 56.2%; in experiment [3], 80.5%; in experiment [4] it was 56.1%; in [5], 31.9%; in experiment [6], 5.32%. Also, the inhibition is 11.6% in experiment [7]; 53.7% in experiment [8]; 75.5% in [9]; 43% in [10]; 36.9% in experiment [11]; 30.6% in [12]. In experiment [13], the inhibition is 102%.

As to `Cc1nc2sccn2c(=O)c1CCN1CCC(=C(c2ccc(F)cc2)c2ccc(F)cc2)CC1`, the inhibition was 94.6% in experiment [1]; 1.44% in [2]; 82.1% in experiment [3]; 96% in experiment [4]; 30.7% in [5]; 1.18% in experiment [6]. In addition, the inhibition in [7] was 19%; in [8], 95.9%; in experiment [9], 97.8%; in [10], 91%; in experiment [11], 74.1%; in experiment [12], 65.8%. Also, the inhibition in experiment [13] is 30.5%.

Take `COc1cccc([C@@H](C)NCCCc2ccccc2Cl)c1`: the inhibition in [1] was 85%; in experiment [2], -2.01%; in experiment [3] it was 32.2%; in experiment [4] it was 22.4%; in [5] it was 26.7%; in experiment [6], 27.2%. In addition, the inhibition in [7] is 15.9%; in experiment [8], 15.5%; in experiment [9], 20.3%; in experiment [10], 91.1%; in [11], 8.31%; in [12] it was 65.3%. The inhibition in experiment [13] was 54.6%.

For the compound `O=C(Cc1ccc(Cl)c(Cl)c1)N1CCCC[C@H]1CN1CCCC1`, the inhibition in experiment [1] was 18.5%; in experiment [2], 7.92%; in experiment [3], 79.7%; in [4], 10.4%; in [5], 37.3%; in experiment [6] it was 16.7%. Also, the inhibition in [7] is -3.57%; in [8], 11.4%; in experiment [9], 12.3%; in experiment [10], 6.03%; in experiment [11] it was -9.99%; in experiment [12], 99.7%. For the same compound, in experiment [13], the inhibition was -1.23%.

Regarding `COc1ccc(NS(=O)(=O)c2sc3ccc(Cl)cc3c2C)cc1N1CCNCC1`, the inhibition is 91% in experiment [1]; 32.3% in experiment [2]; 0.64% in experiment [3]; 48.8% in experiment [4]; 16.6% in [5]; 5.58% in experiment [6]. Further, the inhibition is 50.6% in experiment [7]; 65.1% in experiment [8]; 33% in experiment [9]; 37.4% in experiment [10]; 22.4% in experiment [11]; 75.5% in experiment [12]. In experiment [13], the inhibition was 67.4%.
